Test results published in patent publication US20250009734A1, “METHODS OF INHIBITING FOXO1 FOR TREATMENT OF LYMPHATIC DISORDERS” (UNIVERSITY OF SOUTH FLORIDA, priority 2023, published 2025).

Legend:
[1] = test system: human dermal lymphatic endothelial cells (hdLECs); test: Western blot quantification of protein levels in cultured hdLECs; format: cell-based; details: 0.5 μM, 48 hours, vs vehicle control
Experimental: (§1) FIGS. 2A-2F. AS1842856 elevates protein expression of valve genes and promotes b-catenin nuclear localization in cultured hdLECs. (A) hdLECs were cultured under static condition and treated for 48 hours with 0.5 μM DMSO (vehicle control) or 0.5 μM AS treatment. Thereafter, proteins were extracted, and western blot perform for the indicated proteins. ACTB is the loading control. (B) Quantification results of indicated proteins in western blot from three independent experiments. (C-F) Immunostaining of cultured hdLECs for PROX1 and CTNNB1 protein. All values are mean±SEM. n=3 experiment repeats; ns=not significant; *p≤0.05, **p≤0.01, ***p≤0.001. Vehicle control: 0.5 μM DMSO for 48 hours treatment. AS1842856: 0.5 μM AS1842856 for 48 hours treatment. Cells were stained for PROX1 (green) and CTNNB1 (purple). (E) and (F) are the merged images for PROX1 and CTNNB1. Scale bar is 50 μm.
Next, the inventors performed western blot on the cells treated with 0.5 μM for 48 hours to determine whether the expression of these genes on the protein level was consistent with the PCR results. Three independent experiments of cultured hdLECs were performed, similarly to the quantitative RT-qPCR experiments. Protein levels of FOXC2, GATA2, KLF4, ITGα9, GJA4, activated β-catenin, total β-catenin, PROX1, and FOXO1 were quantified from western blot.
Human dermal lymphatic endothelial cells (hdLECs) purchased from Promocell (C-12216) were cultured in EBM-V2 (PromoCell, C-22121) media on fibronectin (20 μl/well) coated 6-well plates. hdLECs were treated with 4 different conditions: DMSO (1 μM), AS1842856 (EMD Millipore Corporation) 0.1 μM, 0.5 μM and 1 μM for 3 different time points: 24, 48, and 72 hours for qRT-PCR. For western blot, hdLECs were treated with 0.5 μM AS1842856 for 48 hours.
hdLECs were washed 3 times with 1×PBS and 1×RIPA buffer and 100× phosphatase inhibitor (Pierce™, Thermoscientific) was added. A cell scraper was used to scrape the hdLECs off the 6-well plate. hdLECs were pipetted and submerged in lysis RIPA solution. The lysate was collected in a 1.5 mL protein LoBind tube and incubated for 15 mins in ice on an orbital shaker (Belly button, IBI Scientific) for complete lysis. The lysates were then centrifuged for 20 mins at 18300 RPM at 4° C. to and the supernatant was collected in a separate Protein LoBind tube without disturbing the pellet. A Bicinchoninic acid assay (BCA assay, Pierce™, Thermofisher) was performed to calculate protein concentration according to manufacturer's instructions and 25 μg of the total protein was utilized to perform the western blot. The Invitrogen™ mini gel tank apparatus was used to run the western blot on a 4-12% Blot™ Bis Tris Plus polyacrylamide gel. Protein transfer to a PVDF membrane was carried out using an iBlot 2 dry blotting system (Lifesciences, Thermofisher) under the P0 module. The iBind Flex western system (Thermo Fisher Scientific) was used to process the mini blots utilizing an incubation time of >2.5 hours after which the blots were imaged using a Bio-Rad ChemiDoc imaging system.
Quantification analysis of western blot bands was performed in the following manner: 1. Unsaturated western blot images (.scn) were opened with Image Lab 6.1 (Bio-Rad); 2. Using the “lane and bands” tool on the left sidebar of Image Lab, the lanes were defined and adjusted manually; 3. Using the “lane and bands” tool, the bands were identified manually with “add” bands option; 4. The “lane profile” tool was used to omit background; 5. The standard and sample lanes were labeled on the “image info” tool; 6. The adjusted volume (Int) value was obtained using the “lane analysis” tool on Image Lab; 7. Each protein's band volume was normalized to the band volume of the housekeeping protein (b-Actin); 8. Relative expression of each protein was calculated by normalizing the band volume of the experimental group (AS 0.5) to its control (DMSO).

[2] = test system: human dermal lymphatic endothelial cells (hdLECs); test: Immunostaining of PROX1 and β-catenin localization in cultured hdLECs; format: cell-based; details: 0.5 μM AS for 48 hours, DMSO control: almost exclusively on the cell membrane
Experimental: as §1
In cells, phosphorylated β-catenin is degraded in a destruction complex in the cytoplasm, but unphosphorylated β-catenin upon activation is translocated to the nucleus from the cytoplasm (Harada et al., 1999). It has been reported that β-catenin in the nucleus of LECs promotes the expression of valve-forming genes FOXC2 and PROX1 by binding to the promoter areas of these two genes (Cha et al., 2016). […]

[3] = Nagashima et al., 2010; cited from earlier work

For `CCn1cc(C(=O)O)c(=O)c2c(N)c(F)c(NC3CCCCC3)cc21` [AS1842856], the “FOXC2 protein expression level” value [1] was “significantly upregulated”, the FOXO1 protein expression [1] was “did not change” and the “GATA2 protein expression level” value [1] was “significantly upregulated”. For the same compound, the “GJA4 protein expression level” value [1] was “significantly upregulated”, the “ITGA9 protein expression level” value [1] was “significantly upregulated” and the “KLF4 protein expression level” value [1] was “significantly upregulated”. For the same compound, the PROX1 protein level [1] was “did not alter”, the “amount of active (non-phosphorylated) β-catenin protein” value [1] was “increased significantly” and the “amount of p-GSK3β” value [1] was “significantly decreased”. The “amount of total GSK3β” value [1] was “significantly increased”, the “amount of total β-catenin protein” value [1] was “increased significantly” and the “localization of β-catenin (immunostaining)” value [2] was “a remarkable amount of β-catenin was in the nucleus”. For the same compound, the cell permeability [3] was “cell permeable”.
